pIC50: −log10 of the molar value.
What was measured:
CD45 [1] = target: T1, CD45 (Homo sapiens, UniProt P08575); test: Phosphatase assay using pNPP as substrate; assay type: biochemical; conditions: pH 7.0
T1 construct: incubating the cytosolic portion of CD45 with the compounds and p-nitrophenyl phosphate (pNPP); purchased BIOMOL (Plymouth Meeting, Pa.)
T1 sequence (P08575 599-1306 limits assumed): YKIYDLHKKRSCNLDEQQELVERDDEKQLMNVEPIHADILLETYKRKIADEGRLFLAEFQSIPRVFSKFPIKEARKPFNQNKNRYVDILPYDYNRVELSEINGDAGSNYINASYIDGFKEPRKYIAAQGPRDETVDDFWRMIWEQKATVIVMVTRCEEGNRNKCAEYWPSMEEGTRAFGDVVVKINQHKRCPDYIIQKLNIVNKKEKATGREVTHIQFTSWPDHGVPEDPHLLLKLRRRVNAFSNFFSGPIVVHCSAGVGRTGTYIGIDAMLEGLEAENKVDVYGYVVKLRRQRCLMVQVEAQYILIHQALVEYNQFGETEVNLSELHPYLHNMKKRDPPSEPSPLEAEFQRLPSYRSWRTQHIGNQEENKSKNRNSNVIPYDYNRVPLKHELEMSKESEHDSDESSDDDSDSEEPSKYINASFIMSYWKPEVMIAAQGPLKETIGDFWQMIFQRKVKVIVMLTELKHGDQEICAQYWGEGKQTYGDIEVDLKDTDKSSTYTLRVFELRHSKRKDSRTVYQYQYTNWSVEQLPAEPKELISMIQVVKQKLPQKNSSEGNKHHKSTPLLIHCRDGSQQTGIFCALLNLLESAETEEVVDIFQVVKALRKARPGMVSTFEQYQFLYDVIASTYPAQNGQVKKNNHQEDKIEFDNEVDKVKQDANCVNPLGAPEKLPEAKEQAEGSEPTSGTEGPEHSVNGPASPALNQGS
Experimental: (§1) Potent inhibitors of CD45 have been discovered. Such inhibitors are useful for the treatment of various autoimmune disorders as well as for treatment of OGR. Inhibition of the phosphatase activity of CD45 by compounds of the present invention has been shown by incubating the cytosolic portion of CD45 with the compounds and p-nitrophenyl phosphate (pNPP), a phosphatase substrate. Spectrophotometric monitoring has shown that the liberation of p-nitrophenol from the substrate by CD45 is inhibited in the presence of the compounds disclosed herein. Inhibition of the phosphatase activity of CD45 by compounds of the present invention has also been shown using a p56^lck carboxy-terminal phosphorylated peptide as a substrate.
CD45 enzyme was obtained from BIOMOL (Plymouth Meeting, Pa.). Phosphatase activity was assayed in a buffer containing final concentrations of 25 mM imidazole at pH 7.0, 50 mM NaCl, 2.5 mM ethylenediaminetetraacetic acid (“EDTA”), 5 mM dithiothreitol (“DTT”) and 10 μg/mL bovine serum albumin (“BSA”) using pNPP as a substrate.
Activity was measured by following the increase in absorbance at 405 nm using a SpectraMax Plus spectrophotometric plate reader (Molecular Devices, Sunnyvale, Calif.).

CD45 [2] = target: T1, CD45; test: Phosphatase assay using lck 10-mer as substrate; assay type: biochemical; conditions: lck carboxy-terminal peptide TEGQpYQPQP substrate, pH 7.2, 5% DMSO, read-out: Ick IC50
Experimental: as §1
Phosphatase activity was assayed in 96 well plates in a buffer containing final concentrations of 25 mM HEPES at pH 7.2, 5 mM DTT and 10 μg/mL BSA, using the lck carboxy-terminal peptide TEGQpYQPQP as the substrate (Cho, H., Krishnaraj. R., Itoh. M., Kitas, E., Bannwarth, W., Saito, H., Walsh, C. T. 1993. Substrate specificities of catalytic fragments of protein tyrosine phosphatases (HPTPb, LAR. and CD45) toward the phosphotyrosylpeptide substrates and thiophosphotyrosylated peptides as inhibitors. Protein Science 2:977-984). Compounds were tested in a range from 30 to 0.01 μM in a final concentration of 5% DMSO. Enzyme was incubated with substrate. with or without compound, at room temperature for 1.5 h. At the end of the incubation period, BIOMOL “Green Reagent” (BIOMOL, Plymouth Meeting, Pa.) was added to each well, the plates incubated at room temperature for 30 min and absorbance read at 620 nm.

[3] = tested on: Peripheral blood mononuclear cells (T cells); test: T cell proliferation assay (anti-CD3 OKT3-activated PBMC, [3H]thymidine); assay type: cell-based; conditions: human PBMC activated with OKT3 30 ng/mL, read-out: T cell prolif. IC50
Experimental: Whole blood was obtained from healthy human blood donors. Peripheral blood mononuclear cells (“PBMC”) were isolated using Lymphoprep density-gradient centrifugation (Nycomed Amersham, Oslo, Norway), washed, counted and resuspended at 2×10^6 cells/mL in RPMI 1640 medium containing glutamine, 0.1 mg/mL gentamycin and 10% heat inactivated human serum. PBMC were transferred to 96-well plates (2×10^5 cells/well) containing compound or vehicle control, with the final concentration of DMSO not to exceed 0.3% and incubated for 1 hour before addition of the activating anti-CD3 antibody, OKT3 (30 ng/mL). After 24 hours in culture, the cells were pulsed with [3H]thymidine (1 μCi/well) overnight and harvested the next day onto 96-well Packard GF/C filter plates using a Packard Cell Harvester (Packard Instruments, Meriden, Conn.). The filter plate was dried, the bottom of the plate sealed, 25 μL of Microscint 20 scintillation fluid added to each well, the top of the plate sealed with TopSeal-A, and the plate counted on a Packard TopCount. The data from the TopCount is transferred into Excel 5 (Microsoft, Redmond, Wash.) and formatted for EC50 determination using Prism software (GraphPad Software, San Diego, Calif.).

[4] = Cytotoxicity assay (Calcein-AM uptake); assay type: cell-based; conditions: human, T-cell lymphoblasts (PHA-expanded PBMC), overnight incubation, Calcein-AM viability

Row | Compound | pIC50 (CD45 [1]) | pIC50 (CD45 [2]) | pIC50 [3] | CC50 [4] [µM]
1 | O=C1C=Cc2ccccc2C1=O [Example 1, [1,2]-Naphthoquinone] | 5.52 | < 4.52 | 5.15 | > 30
2 | CCOC1=CC(=O)C(=O)c2ccccc21 [Example 2, 4-Ethoxy-[1,2]naphthoquinone] | 5.70 | – | < 4.52 | 30
3 | COC1=CC(=O)C(=O)c2ccccc21 [Example 3, 4-Methoxy-[1,2]naphthoquinone] | 5.92 | 5.38 | < 4.52 | –
4 | C=CCOC1=CC(=O)C(=O)c2ccccc21 [Example 4, 4-Allyloxy-[1,2]naphthoquinone] | 5.92 | 5.31 | < 4.52 | > 30
5 | O=C1C=C(Cl)c2ccccc2C1=O [Example 5, 4-Chloro-[1,2]naphthoquinone] | 5.00 | < 4.52 | < 4.52 | > 30
6 | O=C1C=C(Br)c2ccccc2C1=O [Example 6, 4-Bromo-[1,2]naphthoquinone] | 5.06 | < 4.52 | 4.66 | > 30
7 | Cn1cc(C2=CC(=O)C(=O)c3ccccc32)c2ccccc21 [Example 7, 4-(1-Methyl-1H-indol-3-yl)-[1,2]naphthoquinone] | 5.30 | 4.72 | 5.82 | > 30
8 | O=C1C=C(c2c(-c3ccccc3)[nH]c3ccccc23)c2ccccc2C1=O [Example 8, 4-(2-Phenyl-1H-indol-3-yl)-[1,2]naphthoquinone] | 5.54 | 4.70 | 5.70 | 16
9 | O=C1C=C(c2ccccc2Cl)c2ccccc2C1=O [Example 9, 4-(2-Chloro-phenyl)-[1,2]naphthoquinone] | 5.10 | < 4.52 | 6.52 | 124
10 | O=C1C=C(c2ccc(Br)cc2)c2ccccc2C1=O [Example 10, 4-(4-Bromo-phenyl)-[1,2]naphthoquinone] | 5.11 | < 4.52 | 6.96 | 3
11 | O=C1C=C(c2ccccc2)c2ccccc2C1=O [Example 11, 4-Phenyl-[1,2]naphthoquinone] | 5.30 | < 4.52 | 6.82 | 12
12 | O=C1C=C(c2cccc3ccccc23)c2ccccc2C1=O [Example 12, [1,1′]Binaphthalenyl-3,4-dione] | 4.65 | < 4.52 | 5.49 | > 30
13 | O=C1C=C(c2cc(Cl)cc(Cl)c2)c2ccccc2C1=O [Example 13, 4-(3,5-Dichloro-phenyl)-[1,2]naphthoquinone] | 5.26 | – | 6.52 | 5.5
14 | O=C1C=C(c2cccc([N+](=O)[O-])c2)c2ccccc2C1=O [Example 14, 4-(3-Nitro-phenyl)-[1,2]naphthoquinone] | 5.10 | < 4.52 | 6.70 | 4
15 | O=C1C=Cc2cc(C(=O)c3ccccc3)ccc2C1=O [Example 15, 6-Benzoyl-[1,2]naphthoquinone] | 4.66 | < 4.52 | 4.96 | > 30
16 | COC(=O)c1cccc2c1C=CC(=O)C2=O [Example 16, 5,6-Dioxo-5,6-dihydro-naphthalene-1-Carboxylic acid methyl ester] | 4.96 | < 4.52 | – | > 30
17 | COC(=O)c1ccc2c(c1)C=CC(=O)C2=O [Example 17, 5,6-Dioxo-5,6-dihydro-naphthalene-2-Carboxylic acid methyl ester] | 5.15 | < 4.52 | 5.15 | > 30
18 | O=C1C=Cc2ccc(O)cc2C1=O [Example 18, 7-Hydroxy-[1,2]naphthoquinone] | 5.31 | – | < 4.52 | > 30
